{
  "source": "patent US20240124409A1",
  "about": "“GUAIANOLIDE SESQUITERPENE LACTONE DERIVATIVES AND PHARMACEUTICAL USE THEREOF” (NANJING UNIVERSITY OF CHINESE MEDICINE, priority 2021, published 2024)",
  "type_in_all_cases": "in vivo, C57BL/6 mice",
  "key": {"[1]": {"test_system": "chronic kidney injury models by the unilateral ureteral obstruction method", "assay": "Mouse chronic kidney injury model (unilateral ureteral obstruction)", "from_the_text": "Chronic kidney injury: The mice were randomly divided into 7 groups, one of which was randomly selected as the normal group, and the other 6 groups were the model group, the parent drug 1 (0.4 and 4 μmol/kg), the hydrochloride 22 (4 μmol/kg), and the fumarate 23 (0.4 and 4 μmol/kg) groups, respectively, with 6 mice in each group. In addition to mice in the normal group that had sham operations (i.e., there was no other operations, but only the left ureter was exposed), the other mice were established chronic kidney injury models by the unilateral ureteral obstruction method. Specifically, the abdominal skin was sterilized with iodophor and alcohol in sequence, and the abdominal skin was cut and separated layer by layer. After fully exposing and separating the left ureter, double obstruction was performed at the proximal bladder end of the ureter with a digestible suture line, followed by suture. On the first day of model establishment, the parent drug 1 (0.4 and 4 μmol/kg), the hydrochloride 22 (4 μmol/kg) and the fumarate 23 (0.4 and 4 μmol/kg) were administered intragastrically for 14 consecutive days. The mice in the normal group and model group were administered intragastrically the same volume of the solvent 0.5% CMC-Na.\n1 h after the last administration, blood was collected from the venous plexus of fundus oculi, stood at room temperature for 2 h, and centrifuged at 3000 rpm for 20 min. The serum was aspirated, aliquoted, and frozen at −70° C. for subsequent use. After blood collection, the mice were sacrificed by cervical dislocation, and the abdominal cavity was opened. The kidneys were taken out, rinsed twice with pre-cooled PBS after the perirenal fats and capsules were peeled off, and then fixed with 4% paraformaldehyde for 24-48 h, embedded in paraffin and stained with HE. The remaining tissues were frozen at −70° C. for subsequent use.\nμL serum was taken from each sample for the detection of creatinine and urea levels. Samples were added in accordance with the instructions of the kit strictly. After incubation at 37° C., the absorbance value was measured in a microplate reader, and the content levels of detection indicators in each group were calculated according to the standard curve.\nThe extraction of total RNA from animal tissues, cDNA synthesis and PCR amplification are as in above examples."}, "[2]": {"test_system": "mouse acute lung injury model", "assay": "Mouse acute lung injury model (LPS), ELISA", "settings": "title: serum (text b290: lung tissues)", "method": "In addition to the normal group injected intragastrically with PBS, other mice were injected intraperitoneally with LPS (7.5 mg/kg) to establish acute lung injury models. Three days before model establishment, the parent drug 1 (0.4 and 4 μmol/kg), the hydrochloride 22 (0.4 and 4 μmol/kg), the fumarate 23 (0.4 and 4 μmol/kg) and the positive drug Dex (12 μmol/kg) were administered intragastrically in advance, and LPS (7.5 mg/kg) was injected intraperitoneally half an hour after administration on the third day.\nabdominal cavity was opened. The lungs were taken out, and rinsed twice with pre-cooled PBS. […] The remaining tissues were frozen at −70° C. for subsequent use.\n20 mg of lung tissues were accurately weighed, rinsed with pre-cooled PBS solution, cut into small pieces by ophthalmic surgical scissors, and put into a glass homogenizer, into which was added 180 μL PBS (containing 1 mM PMSF). The mixture was homogenized at 60 HZ for 180 s, and centrifuged at 3000 rpm/min at 4° C. for 20 min. 1 μL supernatant was taken, the protein concentration of which was measured with Nanodrop and leveled, and could be used for subsequent experiments."}, "[3]": {"test_system": "DSS-induced UC model mice", "assay": "Anti-ulcerative colitis activity, DSS mouse colitis model", "method": "Except for the normal group, the other mice were free to drink 2.5% DSS for 7 days, which was then replaced to distilled water to be drunk freely for 3 days to establish the UC model. […] The mice in the normal group and model groups were administered intragastrically the same volume of the solvent 0.5% CMC-Na.\nThe general living conditions of the mice in each group were observed and the disease activity indexs (DAI) were evaluated. The daily specific observation indicator was weight, stool property and occult blood state of mice, and then the scores of the weight loss, stool property and occult blood state were added to determine the average value, so as to obtain the DAI score of each mouse, that is, DAI=(weight loss score+stool property score+occult blood state score)/3, to evaluate the disease activity.\nTest method of occult blood: Using o-toluidine method, a little feces was picked up into a 24-well culture plate with a cotton swab, into which was first added 200 μL of the solution of o-toluidine glacial acetic acid, and then quickly added 200 μL of 3% hydrogen peroxide solution. Those turned blue-brown within 2 minutes were positive.\n1 h after the last administration, blood was collected from the venous plexus of fundus oculi, stood at room temperature for 2 h, and centrifuged at 3000 rpm for 20 min. The serum was aspirated, aliquoted, and frozen at −70° C. for subsequent use. After the blood collection, the mice were sacrificed by cervical dislocation, and the abdominal cavity was opened. The colon tissues were removed 1 cm away from the anus, rinsed twice with pre-cooled PBS, and frozen at −70° C. for subsequent use.\nThe shortening of colon length is one of the main characteristics of DSS-induced UC model mice. After dissecting the abdominal cavity of the UC mice, the colon and distal ileum tissues were dissociated. The external morphological changes of the colon tissues were observed, the colon length was measured and recorded, and the photos were taken.\n40 mg of colon tissues of the mice in each group was taken, into which was added 400 μL of pre-cooled normal saline to prepare tissue homogenates. After centrifugation at 4° C. and 1200 rpm for 5 min, the supernatants were collected. According to the method described in the kit instructions, various reagents were added sequentially, and finally the absorbance value of each well was determined at the wavelength of 460 nm of the microplate reader to calculate the MPO activity.\nMPO activity (U/g wet weight)=(OD value of test tube−OD value of control tube)/11.3×sampling amount(g)"}},
  "data": [
    {"smiles": "CN(C)C[C@@H]1C(=O)O[C@H]2[C@H]1CC[C@@]1(C)C[C@]13CC[C@@](C)(O)[C@H]23", "note": "[Compound 22]", "values": [
      {"measurement": "BUN (urea level in serum)", "setting": "[1]; 4 μmol/kg i.g., 14 days, in mmol/L (unit assumed)", "result": 9.39},
      {"measurement": "Scr (creatinine level in serum)", "setting": "[1]; 4 μmol/kg i.g., 14 days, in µmol/L (unit assumed)", "result": 64.50},
      {"measurement": "Col1a1 mRNA expression", "setting": "[1]; kidney, 4 μmol/kg", "result": 7.30},
      {"measurement": "Havcr1 mRNA expression", "setting": "[1]; kidney, 4 μmol/kg", "result": 6.29},
      {"measurement": "Il1 mRNA expression", "setting": "[1]; kidney, 4 μmol/kg", "result": 2.77},
      {"measurement": "Il6 mRNA expression", "setting": "[1]; kidney, 4 μmol/kg", "result": 3.69},
      {"measurement": "Ngal mRNA expression", "setting": "[1]; kidney, 4 μmol/kg", "result": 16.14},
      {"measurement": "Tgfb1 mRNA expression", "setting": "[1]; kidney, 4 μmol/kg", "result": 1.44},
      {"measurement": "Tnf mRNA expression", "setting": "[1]; kidney, 4 μmol/kg", "result": 5.09},
      {"measurement": "α-Sma mRNA expression", "setting": "[1]; kidney, 4 μmol/kg", "result": 1.26},
      {"measurement": "IL-1β", "setting": "[2]; 0.4 μmol/kg", "result": "1570.02 ± 62.95", "unit": "pg/mL"},
      {"measurement": "IL-6", "setting": "[2]; 0.4 μmol/kg", "result": "2348.32 ± 202.75", "unit": "pg/mL"},
      {"measurement": "IL-1β", "setting": "[2]; 4 μmol/kg", "result": "708.74 ± 38.40", "unit": "pg/mL"},
      {"measurement": "IL-6", "setting": "[2]; 4 μmol/kg", "result": "1172.00 ± 240.50", "unit": "pg/mL"}
    ]},
    {"smiles": "C=C1C(=O)O[C@@H]2[C@H]3C(C)=CC[C@@]34O[C@@]4(C)CC[C@@H]12", "note": "[arglabin, reference compound]", "values": [
      {"measurement": "MPO activity in colon tissue", "setting": "[3]; 20 nmol/kg i.g., 10 days", "result": "0.95 ± 0.18", "unit": "U/g tissue"},
      {"measurement": "Colon length", "setting": "[3]; 20 nmol/kg/d i.g., 10 days", "result": "6.50 ± 0.15", "unit": "cm"},
      {"measurement": "DAI score", "setting": "[3]; day 1, 20 nmol/kg i.g.", "result": "0.00 ± 0.00"},
      {"measurement": "DAI score", "setting": "[3]; day 2, 20 nmol/kg i.g.", "result": "0.36 ± 0.20"},
      {"measurement": "DAI score", "setting": "[3]; day 3, 20 nmol/kg i.g.", "result": "0.65 ± 0.20"},
      {"measurement": "DAI score", "setting": "[3]; day 4, 20 nmol/kg i.g.", "result": "1.17 ± 0.19"},
      {"measurement": "DAI score", "setting": "[3]; day 5, 20 nmol/kg i.g.", "result": "1.39 ± 0.13"},
      {"measurement": "DAI score", "setting": "[3]; day 6, 20 nmol/kg i.g.", "result": "1.62 ± 0.10"},
      {"measurement": "DAI score", "setting": "[3]; day 7, 20 nmol/kg i.g.", "result": "2.07 ± 0.17"},
      {"measurement": "DAI score", "setting": "[3]; day 8, 20 nmol/kg i.g.", "result": "2.32 ± 0.10"},
      {"measurement": "DAI score", "setting": "[3]; day 9, 20 nmol/kg i.g.", "result": "1.45 ± 0.13"},
      {"measurement": "DAI score", "setting": "[3]; day 10, 20 nmol/kg i.g.", "result": "0.92 ± 0.06"}
    ]}
  ]
}
